Like-named read-outs stand apart in the source and are kept apart here.
Tests used:
Format in all cases: cell-based, human
HL-60 = experiment: Cytotoxicity test (ViaLight Plus cell proliferation) on HL-60; settings: 72 hours' incubation, cell viability vs 0.5% DMSO control; for IC50: Homo sapiens, read-out: EC50 HL-60
Description: (§1) The effects of the compounds of the invention on the proliferation of cancer cells were studied on different human cancer cell lines of different tissue origin (MCF-7: breast cancer, MCF-7/adr adriamycin-resistant breast cancer, HL-60: acute promyelocytic leukaemia, HL-60/R10: doxorubicin-resistant acute promyelocytic leukaemia, HT29: colon adenocarcinoma, Mia Paca2: pancreatic tumour, Panc-1: pancreatic exocrine tumour, SK-OV-3: cisplatin- and adriamycin resistant ovarian cancer). The cancer cells used for this study were incubated at 37° C. in the presence of one of the compounds of the invention added to the culture medium at different concentrations.
(§2) The cancer cell lines were obtained from ATCC (American Type Culture Collection) for MCF-7, from Hôpital de la Pitié Salpetrière for MCF-7/adr and from Oncodesign (Dijon, France) for HL-60, HL-60/R10, HT29, MiaPaCa2, Panc-1 and SK-OV-3. They were cultured in RPMI 1640 medium containing 2 mM L-Glutamine supplemented with 10% foetal calf serum (Lonza; Verviers, Belgium). All the cell lines were held in culture at 37° C. in a humid atmosphere containing 5% CO2. Cell proliferation was assessed using the ViaLight® Plus Assay Kit (Lonza; Verviers, Belgium) following the manufacturer's instructions. The cells were seeded in 96-well culture plates compatible with luminescence read-off (white plates with transparent bottom) in a proportion of 5 000 to 10 000 cells per well in 100 μl of culture medium. After a pre-incubation time of 24 hours at 37° C., the compounds of the invention dissolved in dimethylsulfoxide (DMSO) were individually added to each well in a proportion of 0.5 μl per well. After 72 hours' incubation at 37° C. in a humid atmosphere containing 5% CO2, 50 μl of lysis buffer were added to each well and 15 minutes later 100 μl of ATP measuring agent were added. The plates were read under a luminometer to evaluate cell viability. The data obtained was processed by computer to obtain the EC50 value i.e. the concentration value of each of the compounds which induces 50% cell viability compared with a control value (0.5% DMSO alone).

MCF-7 = experiment: Cytotoxicity test (ViaLight Plus cell proliferation) on MCF-7; settings: 72 hours' incubation, cell viability vs 0.5% DMSO control
Description: as §1, §2

HL-60/R10 = experiment: Cytotoxicity test (ViaLight Plus cell proliferation) on HL-60/R10; settings: doxorubicin-resistant line, 72 hours' incubation, cell viability vs 0.5% DMSO control, read-out: EC50 HL60/R10; for IC50: Homo sapiens
Description: as §1, §2

MCF-7/adr = experiment: Cytotoxicity test (ViaLight Plus cell proliferation) on MCF-7/adr; settings: adriamycin-resistant line, 72 hours' incubation, cell viability vs 0.5% DMSO control
Description: as §1, §2

Molecule | EC50 (HL-60) | EC50 (HL-60/R10) | EC50 (MCF-7/adr) | further results
CC(C)[C@H]1CN(C(=O)C(c2ccc(F)cc2)N(C(=O)CCl)c2ccc(Oc3ccccc3)cc2)CCN1 (single isomer, unassigned) [I-3 dia1] | 1310 nM | 15 nM | 55 nM | EC50 (MCF-7): 927 nM
CC(C)[C@@H]1CN(C(=O)C(c2ccc(F)cc2)N(C(=O)CCl)c2ccc(Oc3ccccc3)cc2)CCN1 (single isomer, unassigned) [I-4 dia1] | 648 nM | 4 nM | 13 nM | EC50 (MCF-7): 315 nM
CC(C)[C@@H]1CN(C(=O)C(c2ccc(F)cc2)N(C(=O)CCl)c2ccc(Oc3ccccc3)cc2)CCN1 (single isomer, unassigned) [I-4 dia2] | 1320 nM | 62 nM | 166 nM | EC50 (MCF-7): 863 nM
Cc1cc(Oc2ccccc2)ccc1N(C(=O)CCl)C(C(=O)N1CCN[C@@H](C(C)C)C1)c1ccc(F)cc1 (single isomer, unassigned) [I-7 dia1] | – | 604 nM | 618 nM | IC50 (HL-60; HL-60, 72 h): 2500 nM; IC50 (MCF-7; Homo sapiens, MCF7, 72 h, read-out: EC50 MCF-7): 2500 nM
CC[C@@H]1CN(C(=O)C(c2ccc(F)cc2)N(C(=O)CCl)c2ccc(Oc3ccccc3)cc2C)CCN1C(=O)OC(C)(C)C (single isomer, unassigned; dia1) [I-16 dia1] | 1480 nM | 450 nM | 527 nM | –
CC[C@H]1CN(C(=O)C(c2ccc(F)cc2)N(C(=O)CCl)c2ccc(Oc3ccccc3)cc2C)CCN1 (single isomer, unassigned; dia1) [I-17 dia1] | 2310 nM | 353 nM | 898 nM | –
CC[C@@H]1CN(C(=O)C(c2ccc(F)cc2)N(C(=O)CCl)c2ccc(Oc3ccccc3)cc2C)CCN1 (single isomer, unassigned; dia1) [I-18 dia1] | 1600 nM | 140 nM | 485 nM | –
CC[C@H]1CN(C(=O)C(c2ccc(F)cc2)N(C(=O)CCl)c2ccc(Oc3ccccc3)cc2)CCN1C(=O)OC(C)(C)C (single isomer, unassigned; dia1) [I-19 dia1] | 516 nM | 97 nM | 128 nM | –
Cc1cc(CCC(C)(C)C)ccc1N(C(=O)CCl)C(C(=O)N1CCNC(C(C)C)C1)c1ccc(F)cc1 (single isomer, unassigned; dia1) [I-25 dia1] | 1120 nM | 43 nM | – | –
Cc1cc(Oc2ccccc2)ccc1N(C(=O)CCl)C(C(=O)N1CCN(C(=O)OC(C)(C)C)[C@H](C)C1)c1cccs1 (single isomer, unassigned; dia1) [I-40 dia1] | 2130 nM | 248 nM | 371 nM | –
Cc1cc(Oc2ccccc2)ccc1N(C(=O)CCl)C(C(=O)N1CCN[C@@H](C(C)C)C1)c1cccs1 (single isomer, unassigned; dia1) [I-46 dia1] | – | 318 nM | 544 nM | –
Cc1cc(Oc2ccccc2)ccc1N(C(=O)CCl)C(C(=O)N1CCN[C@@H](CC(C)C)C1)c1cccs1 (single isomer, unassigned; dia1) [I-47 dia1] | 936 nM | 54 nM | – | –
CC(C)[C@H]1CN(C(=O)C(c2cccs2)N(C(=O)CCl)c2cccc(C(F)(F)F)c2)CCN1 (single isomer, unassigned; dia1) [I-50 dia1] | 2100 nM | 259 nM | – | –
CC(C)C[C@H]1CN(C(=O)C(c2cccs2)N(C(=O)CCl)c2ccc(Oc3ccccc3)cc2)CCN1 (single isomer, unassigned; dia1) [I-51 dia1] | 145 nM | 96 nM | – | –
Cc1cc(Cl)ccc1N(C(=O)CCl)C(C(=O)N1CCN[C@@H](C(C)C)C1)c1cccs1 (single isomer, unassigned; dia1) [I-52 dia1] | – | 194 nM | – | –
CC[C@@H]1CN(C(=O)C(c2ccc(F)cc2)N(C(=O)CCl)c2ccc(Oc3ccccc3)cc2C)CCN1C(=O)OC(C)(C)C (single isomer, unassigned; dia2) [I-16 dia2] | 1910 nM | 317 nM | 443 nM | –
CC[C@H]1CN(C(=O)C(c2ccc(F)cc2)N(C(=O)CCl)c2ccc(Oc3ccccc3)cc2)CCN1C(=O)OC(C)(C)C (single isomer, unassigned; dia2) [I-19 dia2] | 453 nM | 24 nM | 35 nM | –
CC[C@@H]1CN(C(=O)C(c2ccc(F)cc2)N(C(=O)CCl)c2ccc(Oc3ccccc3)cc2)CCN1C(=O)OC(C)(C)C (single isomer, unassigned; dia2) [I-20 dia2] | 1480 nM | 139 nM | 165 nM | –

Molecule | EC50 (HL-60) | EC50 (HL-60/R10) | EC50 (MCF-7/adr) | further results
Cc1cc(CCC(C)(C)C)ccc1N(C(=O)CCl)C(C(=O)N1CCNC(C(C)C)C1)c1ccc(F)cc1 (single isomer, unassigned; dia2) [I-25 dia2] | 819 nM | 103 nM | – | –
Cc1cc(Oc2ccccc2)ccc1N(C(=O)CCl)C(C(=O)N1CCN(C(=O)OC(C)(C)C)[C@H](C)C1)c1cccs1 (single isomer, unassigned; dia2) [I-40 dia2] | – | 487 nM | 827 nM | –
Cc1cc(Oc2ccccc2)ccc1N(C(=O)CCl)C(C(=O)N1CCN[C@@H](CC(C)C)C1)c1cccs1 (single isomer, unassigned; dia2) [I-47 dia2] | 849 nM | 8 nM | – | –
CC(C)C[C@H]1CN(C(=O)C(c2cccs2)N(C(=O)CCl)c2ccc(Oc3ccccc3)cc2)CCN1 (single isomer, unassigned; dia2) [I-51 dia2] | 3 nM | 1 nM | – | –
Cc1cc(Cl)ccc1N(C(=O)CCl)C(C(=O)N1CCN[C@@H](C(C)C)C1)c1cccs1 (single isomer, unassigned; dia2) [I-52 dia2] | 223 nM | 24 nM | – | –
Cc1cc(Oc2ccccc2)ccc1N(C(=O)CCl)C(C(=O)N1CCN(C(=O)OC(C)(C)C)C(C(=O)NCc2ccccc2)C1)c1cccs1 (single isomer, unassigned; dia2) [I-53 dia2] | 547 nM | 305 nM | – | –
Cc1cc(CCC(C)(C)C)ccc1N(C(=O)CCl)C(C(=O)N1CCN[C@@H](C(C)C)C1)c1ccc(F)cc1 (stereo partly shown) [Example I-23] | – | – | – | IC50 (HL-60; HL-60, 72 h): 559 nM; IC50 (HL-60/R10; HL-60, 72 h): 12 nM
Cc1cc(CCC(C)(C)C)ccc1N(C(=O)CCl)C(C(=O)N1C[C@@H](C)N[C@@H](C)C1)c1ccc(F)cc1 (stereo partly shown) [Example I-24] | – | – | – | IC50 (HL-60; HL-60, 72 h): 626 nM; IC50 (HL-60/R10; HL-60, 72 h): 15 nM
CC1CN(C(=O)C(c2cccs2)N(C(=O)CCl)c2cccc(C(F)(F)F)c2)CC(C)N1C(=O)OC(C)(C)C (stereo not shown) [Example I-28] | – | – | – | IC50 (HL-60; HL-60, 72 h): 623 nM; IC50 (HL-60/R10; HL-60, 72 h): 206 nM
Cc1cc(Oc2ccccc2)ccc1N(C(=O)CCl)C(C(=O)N1CCN2CCC[C@H]2C1)c1cccs1 (stereo partly shown) [Example I-33] | – | 157 nM | 394 nM | –
C[C@@H]1CN(C(=O)[C@H](c2cccs2)N(C(=O)CCl)c2ccc(Oc3ccccc3)cc2)C[C@H](C)N1 [Example I-44] | 215 nM | 7 nM | – | –
Cc1cc(Oc2ccccc2)ccc1N(C(=O)CCl)C(C(=O)N1CCNC(c2ccccc2)C1)c1cccs1 (stereo not shown) [Example I-45] | – | – | – | IC50 (HL-60; HL-60, 72 h): 2140 nM; IC50 (HL-60/R10; HL-60, 72 h): 17 nM
Cc1cc(Oc2ccccc2)ccc1N(C(=O)CCl)C(C(=O)N1CCNC(Cc2ccccc2)C1)c1cccs1 (stereo not shown) [Example I-48] | – | – | – | IC50 (HL-60; HL-60, 72 h): 1990 nM; IC50 (HL-60/R10; HL-60, 72 h): 10 nM
Cc1cc(Cl)ccc1N(C(=O)CCl)C(C(=O)N1C[C@@H](C)N[C@@H](C)C1)c1cccs1 (stereo partly shown) [Example I-49] | – | – | – | IC50 (HL-60; HL-60, 72 h): 1170 nM; IC50 (HL-60/R10; HL-60, 72 h): 321 nM
Cc1cc(Oc2ccccc2)ccc1N(C(=O)CCl)C(C(=O)N1CCNCC1)c1ccc(F)cc1 (stereo not shown) [reference compound] | – | – | – | IC50 (HL-60; HL-60, 72 h): 1630 nM; IC50 (HL-60/R10; HL-60, 72 h): 226 nM
C[C@@H]1CNCCN1C(=O)C(c1cccs1)N(C(=O)CCl)c1ccc(Oc2ccccc2)cc1 (stereo partly shown) [reference compound] | – | – | – | IC50 (HL-60; HL-60): 311 nM; IC50 (HL-60/R10; HL-60): 38 nM
tert-butyl ester of 4-[2-[(2-chloro-acetyl)-(4-phenoxy-phenyl)-amino]-2-(4-fluoro-phenyl)-acetyl]-(S)-2-isopropyl-piperazine-1-carboxylic acid [I-1 dia1] | 1800 nM | – | 338 nM | –
tert-butyl ester of 4-[-2-[(2-chloro-acetyl)-(4-phenoxy-phenyl)-amino]-2-(4-fluoro-phenyl)-acetyl]-(R)-2-isopropyl-piperazine-1-carboxylic acid [I-2 dia2] | 2060 nM | 472 nM | 645 nM | –
